Assay results taken from publication PMC10041525, “New Dual Inhibitors of Bacterial Topoisomerases with Broad-Spectrum Antibacterial Activity and In Vivo Efficacy against Vancomycin-Intermediate Staphylococcus aureus” (Journal of Medicinal Chemistry, 2023).
≈ marks a conversion by molar mass, not a printed value. Where “and” joins values, the source holds several entries; their conditions need not be identical. Equal values may be shown once. Read-outs that look alike come from different tables or passages of the source.

Tests used:
physchem = type: physicochemical; conditions: for solubility thermodynamic at 24 h / solubility thermodynamic at 48 h: phosphate-buffered saline (PBS)
Experimental: For the PBS, 2.38 g of disodium hydrogen phosphate dodecahydrate, 0.19 g of potassium dihydrogen phosphate, and 8.0 g of sodium chloride were added to distilled water (900 mL), and the solution was mixed overnight. […] Samples were prepared by weighing the exact mass of solid compounds (about 1 mg), and then, the appropriate volume of PBS was added to reach the final concentration of ∼1 mg/mL. […] The supernatant was diluted 3× with a 1:1 mixture of 0.1% TFA in water and acetonitrile and analyzed by HPLC. For the 7-point calibration curves, concentrated stock solutions of the compounds were prepared at concentrations of 10 and 0.5 mM in DMSO, which were diluted with a 1:1 mixture of 0.1% TFA in water and acetonitrile to the desired final concentrations and analyzed by HPLC. Results are given in μM as an average value of two independent experiments. For details on calibration curves, concentrations, analytical method, and HPLC method, see the Supporting Information.
Thermodynamic solubility assay
To determine thermodynamic solubility of compounds in PBS, calibration curves for the assayed compounds were prepared using seven concentrations. First, DMSO stock solutions of compounds at 10 mM and 0.5 mM concentration were prepared and then diluted (0.1% TFA in […]
Quality control (QC) samples were diluted from stock solutions with a 1:1 mixture of 0.1% TFA in water and acetonitrile to final concentrations of 60 µM, 20 µM, and 2 µM (6 µM, 2 µM, and 0.2 µM for 7f or 0.6 µM, 0.2 µM, and 0.02 µM for 7g).
Analytical reversed-phase UHPLC analyses were performed on Thermo Scientific Dionex UltiMate 3000 modular system (Thermo Fisher Scientific Inc., MA, USA). Waters Acquity UPLC® HSS C18 SB column (2.1 × 50 mm, 1.8 μm; Waters, Milford, MA, USA) was used at T […]
Mobile phase consisted of 0.1% trifluoroacetic acid in ultrapure water (solvent A) and acetonitrile […]
The obtained data was processed in Chromeleon CDS software (Thermo Fisher Scientific Inc., […]
Analytical method was tested for accuracy, precision and linear rang. Accuracy was […]
(or 2 or 0.2) µM and 60 (or 6 or 0.6) µM) to their true values and expressed in (%). Values were […]
Method repeatability was determined by calculating the RSD from the separately prepared and analysed quality control samples (n = 3). […] Linearity of the […]
method (1 (or 0.1 or 0.01) µM to 100 (or 10 or 1) µM) was evaluated from the 7-point calibration […]
Solubility was determined in two independent experiments and results were calculated in […]

[1] = test system: Enterococcus faecalis ATCC 29212; test: MIC broth microdilution (CLSI); type: cell-based, E. faecalis; conditions: Enterococcus faecalis, ATCC29212
E. coli ATCC 25922 = test: IHMA QC MIC; type: cell-based; conditions: Escherichia coli
P. aeruginosa ATCC 27853 = test: IHMA QC MIC; type: cell-based; conditions: for MIC: Pseudomonas aeruginosa
[2] = pH 7.4, PBS pH 7.4, read-out: thermodynamic solubility, Experiment 1
[3] = pH 7.4, thermodynamic solubility (pH = 7.4), PBS, 37 °C, 24 h, mean of two
[4] = pH 7.4, PBS pH 7.4, read-out: thermodynamic solubility, Experiment 2

| Structure (SMILES) | solubility thermodynamic at 24 h (physchem; [2]) | solubility thermodynamic at 24 h (physchem; [3]) | thermodynamic solubility (pH = 7.4) (physchem; PBS, 37 °C, 24 h, mean of two) | solubility thermodynamic at 24 h (physchem; [4]) | MIC ([1]; read-out: MIC) | other results |
| --- | --- | --- | --- | --- | --- | --- |
| Cc1[nH]c(C(=O)Nc2nc3c(N4CCOC(C(F)(F)F)C4)cc(C(=O)O)cc3s2)c(Cl)c1Cl (stereo not drawn) [7i, 2-(3,4-Dichloro-5-methyl-1H-pyrrole-2-carboxamido)-4-(2-(trifluoromethyl)morpholino)benzo[d]thiazole-6-carboxylic Acid] | 10.7 µM (≈ 5.57 µg/mL) | 10.7 µM (≈ 5.6 µg/mL) | – | – | – | solubility thermodynamic at 48 h (physchem; [3]): 11 µM (≈ 5.76 µg/mL); MIC [1]: < 0.0312 µg/mL |
| Cc1[nH]c(C(=O)Nc2nc3c(N4CCOCC4)cc(C(=O)O)cc3s2)cc1F [16b, 2-(4-Fluoro-5-methyl-1H-pyrrole-2-carboxamido)-4-morpholinobenzo[d]thiazole-6-carboxylic Acid] | 140 µM (≈ 56.7 µg/mL) | 131 µM (≈ 53 µg/mL) | 131.4 µM and 131.42 µM | 123 µM (≈ 49.6 µg/mL) | 16 µg/mL | – |
| Cc1[nH]c(C(=O)Nc2nc3c(N4CCC(O)CC4)cc(C(=O)O)cc3s2)c(Cl)c1Cl [7p, 2-(3,4-Dichloro-5-methyl-1H-pyrrole-2-carboxamido)-4-(4-hydroxypiperidin-1-yl)benzo[d]thiazole-6-carboxylic Acid] | 279 µM (≈ 131 µg/mL) | 184 µM (≈ 86.4 µg/mL) | 183.7 µM and 183.67 µM | 88.3 µM (≈ 41.4 µg/mL) | < 0.0312 µg/mL | – |
| CN(C)c1cc(NC(=O)CNC(C)(C)C)c(O)c2c1C[C@H]1C[C@H]3[C@H](N(C)C)C(O)=C(C(N)=O)C(=O)[C@@]3(O)C(O)=C1C2=O [Tigecycline, tigecycline] | – | – | – | – | – | MIC (E. coli ATCC 25922; ATCC25922, read-out: MIC (QC, repeated tests)): 0.12 µg/mL (≈ 0.205 µM); MIC (QC, repeated tests) (P. aeruginosa ATCC 27853): 4 µg/mL (≈ 6.83 µM); MIC (P. aeruginosa ATCC 27853; ATCC27853, read-out: MIC (QC, repeated tests)): 8 µg/mL (≈ 13.7 µM) |
| Cc1[nH]c(C(=O)Nc2nc3c(N4CC(C)OC(C)C4)cc(C(=O)O)cc3s2)c(Cl)c1Cl (stereo not drawn) [7f, 2-(3,4-Dichloro-5-methyl-1H-pyrrole-2-carboxamido)-4-(2,6-dimethylmorpholino)benzo[d]thiazole-6-carboxylic Acid] | 0.95 µM (≈ 0.459 µg/mL) | 0.92 µM (≈ 0.445 µg/mL) | – | 0.89 µM (≈ 0.43 µg/mL) | < 0.0312 µg/mL | – |
| COCC1CCCN1c1cc(C(=O)O)cc2sc(NC(=O)c3[nH]c(C)c(Cl)c3Cl)nc12 (stereo not drawn) [7n, 2-(3,4-Dichloro-5-methyl-1H-pyrrole-2-carboxamido)-4-(2-(methoxymethyl)pyrrolidin-1-yl)benzo[d]thiazole-6-carboxylic Acid] | 11 µM (≈ 5.31 µg/mL) | 11.2 µM (≈ 5.41 µg/mL) | 11.18 µM | 11.4 µM (≈ 5.49 µg/mL) | < 0.0312 µg/mL | – |
| Cc1[nH]c(C(=O)Nc2nc3c(N4C[C@H]5CC[C@@H](C4)O5)cc(C(=O)O)cc3s2)c(Cl)c1Cl [7g, 4-((1R,5S)-8-Oxa-3-azabicyclo[3.2.1]octan-3-yl)-2-(3,4-dichloro-5-methyl-1H-pyrrole-2-carboxamido)benzo[d]thiazole-6-carboxylic Acid] | 0.33 µM (≈ 0.159 µg/mL) | – | – | 0.19 µM (≈ 0.0915 µg/mL) | < 0.0312 µg/mL | solubility thermodynamic at 48 h (physchem; [3]): 0.26 µM (≈ 0.125 µg/mL) |
| Cc1[nH]c(C(=O)Nc2nc3c(N4CCOC[C@@H]4C)cc(C(=O)O)cc3s2)c(Cl)c1Cl [7d, (S)-2-(3,4-Dichloro-5-methyl-1H-pyrrole-2-carboxamido)-4-(3-methylmorpholino)benzo[d]thiazole-6-carboxylic Acid] | 5.6 µM (≈ 2.63 µg/mL) | 5.8 µM (≈ 2.72 µg/mL) | 5.84 µM | 6.07 µM (≈ 2.85 µg/mL) | < 0.0312 µg/mL | – |
| CC1(C)S[C@@H]2[C@H](NC(=O)[C@H](N)c3ccccc3)C(=O)N2[C@H]1C(=O)O [Ampicillin, ampicillin] | – | – | – | – | – | MIC (E. coli ATCC 25922; ATCC25922, QC strain E. coli ATCC 25922, test date 2021-11-11, read-out: MIC): 8 µg/mL (≈ 22.9 µM); MIC (E. coli ATCC 25922; ATCC25922, QC strain E. coli ATCC 25922, test date 2021-11-26, read-out: MIC): 4 µg/mL (≈ 11.4 µM); MIC (P. aeruginosa ATCC 27853; ATCC27853, QC strain P. aeruginosa ATCC 27853, test date 2021-11-11, read-out: MIC): > 32 µg/mL; MIC (P. aeruginosa ATCC 27853; ATCC27853, QC strain P. aeruginosa ATCC 27853, test date 2021-11-26, read-out: MIC): > 32 µg/mL |
